Laboratory results from publication PMC10590383, “Repurposing conformational changes in ANL superfamily enzymes to rapidly generate biosensors for organic and amino acids” (Nature Communications, 2023).

Experiment: Dose–response curve of purified […]s with isoleucine
Type: biochemical
Parameters: key to Dose-response, AVE of Repeat 1-3 (Fig. 3 i): normalized ΔF/F0 (fluorescence change over baseline)
Settings: for fluorescence response of GECFINDER, AVE of 3 repeats: Supplementary Fig. 3 g
Experimental: Fig. 3 Dose–response curves and fluorescence spectrums of […]s. a, c, e, g, i, k Dose–response curve of purified […]s with increasing concentrations of ligand in 100 mM Tris-HCl buffer (pH=7.5). The normalized ΔF/F0 value increased after ligand binding. All data shown are mean ± S.D. (n = 3 biologically independent samples). b, d, f, h, j, l The fluorescence spectra of […]s changed as the ligand concentration increased. All data shown are mean ± S.D. (n = 3 biologically independent samples). Source data are provided as a Source data file.
The study conducted dose–response curve, substrate specificity, and fluorescent spectrum analyses in 100-mM Tris buffer (pH = 7.5), while pH stability experiments were performed in 100-mM Tris buffer at three different pH values (6.5, 7.5, and 8.5) at room temperature. […] protein at a concentration of 0.75 μM, various small molecule concentrations, 1 mM ATP, and 2.5 mM MgCl2 were used in the experiments. Fluorescent signals were detected using a Microplate Reader (Synergy H4, Bio Tek) at an excitation/emission wavelength of 460 nm/510 nm or 480 nm/510 nm. The dose-response curve was determined immediately after the addition of the analyte. The total duration of the measurement was 15 min, with readings taken at one-minute intervals. The dose-response curve was plotted using the fluorescence values obtained after achieving stability in the fluorescence signal. The dose-response curves were fitted using the logistic model LOGISTIC5 available in Origin 2021, which could provide a more adequate fit to asymmetric dose-response data[62],[63]. Excitation spectra were scanned from 300 to 540 nm with a step size of 5 nm, and the emission wavelength was set to 560 nm. Emission spectra were scanned from 470 to 700 nm with a step size of 5 nm, and the excitation wavelength was set to 450 nm. The thermal stability of […] was analyzed using the UNcle multifunctional protein stability analysis system. Measurements were performed in 20 mM MOPS buffer with 2 mM DTT at a sample concentration of 1 mg/mL. Absolute fluorescence quantum yields were measured using an absolute photoluminescence quantum yield spectrometer (FS5, Edinburgh). […]
Ile (μM) Wave le ngth( nm ) Ile (μM) Wave le ngth( nm )
Supplementary Fig. 2 Dose–response curves and fl uorescen ce spectr ums of GEC FINDERs. a and c, Dose– re spons e curves of puri fi ed GECF INDE R-P he1 and 2 with increas ing concen tra tions of phenylalanine (1 nM to 100 μM). The norm alized ΔF/F 0 value increas ed aft er phenylalanine binding (4 60 nm excita tion) . b and d, The fl uore scen ce spect ra of GECF IN DER-P he1 and 2 changed as the phe nylalanine concen tra tion incre ased fro m 1 nM to 100 μM. e and g, Dose–re spon se curv es of puri fied GECF IN DER-Il e1 and 2 with increas ing concen tra tio ns of isoleucine (50 nM to 10 mM). The norm alized ΔF/F 0 value increas ed aft er isoleucine binding (4 80 nm excita tion) . f and h, The fl uore scen ce spect ra of GECF INDE R-Il e1 and 2 change d as the isoleucine concen tration increas ed fro m 0.5 μM to 10 mM. i, Dose–re spon se curv e of puri fi ed GECF INDE R-H is1 with increas ing concen tra tio ns of histid ine (5 nM to 1 mM). The Norm alized ΔF/F 0 increas ed aft er histidine binding (480 nm excita tion). j, The fl uore scen ce spect ra of GECFIN DER-H is1 changed as the histid ine concen tra tion increas ed fro m 5 nM to 1 mM. k, Diffe re nce in fl uore scen ce intensity of GECF INDE R-b enzoic aci d in the pre sence of 10 µM benzoic aci d compare d to the cont ro l (0 µM benzoic aci d). […] (n=3 biological ly independent samples). *p ≤ 0.05, ***p ≤ 0.001, ****p ≤ 0.0001, and n.s. indicat ed no signifi can t diffe re nce (S tude nt’s two-t aile d t-t est). Source data are provi ded as a Source Data file . […]

With CC[C@H](C)[C@H](N)C(=O)O [Ile] the “Dose-response, AVE of Repeat 1-3 (Fig. 3 i)” value (shortened to “Dose-response, AVE”) (Ile 0.05 μM) was 0, the “Dose-response, AVE” value (Ile 0.1 μM) was 0.02113 and the “Dose-response, AVE” value (Ile 0.5 μM) was 0.03402. The “Dose-response, AVE” value (Ile 5 μM) was 0.05594, the “Dose-response, AVE” value (Ile 50 μM) was 0.1628 and the “Dose-response, AVE” value (Ile 100 μM) was 0.2049. The “Dose-response, AVE” value (Ile 250 μM) was 0.2905, the “Dose-response, AVE” value (Ile 500 μM) was 0.3097 and the “Dose-response, AVE” value (Ile 1000 μM) was 0.3698. The “Dose-response, AVE” value (Ile 5000 μM) was 0.4681, the “Dose-response, AVE” value (Ile 7500 μM) was 0.4489 and the “Dose-response, AVE” value (Ile 10000 μM) was 0.4411. For the same molecule, the “fluorescence response of GECFINDER, AVE of 3 repeats” value (“fluorescence response of GECFINDER” below) (Ile 0.05 μM) was -6.245e-17, the “fluorescence response of GECFINDER” value (Ile 0.1 μM) was 0.01149 and the “fluorescence response of GECFINDER” value (Ile 0.5 μM) was 0.02425. The “fluorescence response of GECFINDER” value (Ile 5 μM) was 0.01608, the “fluorescence response of GECFINDER” value (Ile 50 μM) was 0.05759 and the “fluorescence response of GECFINDER” value (Ile 100 μM) was 0.08825. The “fluorescence response of GECFINDER” value (Ile 250 μM) was 0.1283, the “fluorescence response of GECFINDER” value (Ile 500 μM) was 0.1586 and the “fluorescence response of GECFINDER” value (Ile 1000 μM) was 0.1861. The “fluorescence response of GECFINDER” value (Ile 5000 μM) was 0.2413, the “fluorescence response of GECFINDER” value (Ile 7500 μM) was 0.2222 and the “fluorescence response of GECFINDER” value (Ile 10000 μM) was 0.2208.
